Experiments:
C57BL/6J mice [1] = experiment: Naloxone-precipitated morphine withdrawal, composite withdrawal score; assay type: in vivo; conditions: 0.5 mg/kg, 30 minutes before withdrawal
C57BL/6J mice [2] = experiment: as above; assay type: in vivo; conditions: for Withdrawal behaviors: 60 minutes prior to naloxone
Experimental: Adult male C57BL/6J (7-9 weeks) mice were used. Mice were housed under 12/12 hour light/dark cycles with ad libitum access to food and water. Mice were randomly allocated to different test groups. All experiments were approved by the University of Calgary Animal Care Committee and are in accordance with the guidelines of the Canadian Council on Animal Care.
Morphine sulfate (MS, PCCA) prepared in 0.9% sterile saline solution was injected i.p. into male C57BLJ6J (20-30g) mice. Mice received ascending doses of morphine (i.p.) at 8 hours intervals: day 1, 10mg/kg; day 2, 20 mg/kg; day 3, 30 mg/kg; day 4, 40mg/kg. On day 5, mice received a morning injection of morphine (50 mg/kg). A subset of mice received probenecid (15, 25, and 50 mg/kg i.p., Invitrogen) or Compound 1 (0.1, 0.5 and 1 mg/kg) 1 hour following morphine. Mice then received i.p. naloxone (2 mg/kg, naloxone hydrochloride dihydrate, Sigma) 2 hours following morphine to rapidly induce opioid withdrawal. Control mice received equivalent volumes of 0.9% saline or appropriate vehicle solution (0.1% DMSO in saline) and were challenged with naloxone on day 5. Withdrawal behaviors were then scored for 30 minutes post naloxone injection. Behaviors were scored for occurrence and then scaled for severity at 5-minute intervals. Behaviors that were assigned a standardized score between 0-3 depending on severity were jumping, headshakes, wet-dog shakes, chewing/licking, and teeth chattering. Behaviors that were scored 1 point for presence during a 5-minute interval include piloerection and tremors/twitching. The mice were then weighed following the 30 minutes, and the weight difference was assigned a standardized score dependent on the weight change between 0-3 as well. The scaled and present/absent signs were compiled over the 30 minutes to produce a composite withdrawal score.
All data are presented as the mean±standard error mean (s.e.m), and each circle represents an individual animal or experiment. Tests of statistical difference were performed with GraphPad Prism 6 using either an ordinary one-way ANOVA with posthoc Dunnet test, or a two-way ANOVA with post hoc Sidak test. Sample sizes are consistent with those reported in similar studies and provide sufficient power to detect changes with the appropriate statistical analysis. For all experiments, a criterion a level was set at 0.05.

Panx1 channel = target: T1, Panx1 channel (Mus musculus, UniProt Q9JIP4); experiment: YO-PRO-1 dye uptake assay in BV-2 microglia-like cells (BzATP stimulation); assay type: cell-based; conditions: BV-2 cells
T1 construct: endogenous in cells; host or cells: BV-2 microglia-like cells
T1 sequence (Q9JIP4 whole entry): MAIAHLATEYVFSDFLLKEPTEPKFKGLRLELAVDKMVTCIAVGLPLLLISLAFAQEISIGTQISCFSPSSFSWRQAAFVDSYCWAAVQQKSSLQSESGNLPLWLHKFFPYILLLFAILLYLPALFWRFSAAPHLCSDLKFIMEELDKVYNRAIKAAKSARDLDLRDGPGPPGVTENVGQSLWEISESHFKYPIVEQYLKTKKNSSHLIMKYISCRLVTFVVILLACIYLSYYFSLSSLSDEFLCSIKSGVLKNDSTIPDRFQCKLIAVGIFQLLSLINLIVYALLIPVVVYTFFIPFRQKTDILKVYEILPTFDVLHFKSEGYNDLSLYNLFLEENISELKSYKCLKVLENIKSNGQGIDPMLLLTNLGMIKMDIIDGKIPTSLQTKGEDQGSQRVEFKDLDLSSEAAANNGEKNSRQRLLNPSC
Experimental: After plating into 96 well plates, cell culture media was removed and BV-2 cells were incubated in extracellular solution (ECS) (140 mM NaCl, 4.5 mM KCl, 1.3 mM CaCl2, 10 mM HEPES, and 33 mM glucose; pH7.35, osmolarity 315 mOsm) containing YO-PRO-1 dye (2.5 μM, Invitrogen). After a 5 minute baseline recording, cells were stimulated with 3′-O-(4-benzoyl)benzoyl adenosine 5′-triphosphate (BzATP) (150 μM, Toronto Research Chemicals) and dye-uptake was recorded for 30 minutes. Cell viability was assessed immediately after the 30 minute recording by application of ionomycin (1 μM, Sigma). […] YO-PRO-1 fluorescent emission (491/509) was detected using a FilterMax F5 plate reader (Molecular Devices). Drugs used include (−)-norepinephrine (100 pM-1 μM, Sigma), probenecid (1 mM, Life Technologies), and Compound 1 (10 nM, Derksen et al). Drugs were bath applied in ECS containing YO-PRO-1 dye and incubated at 37° C. for 10 minutes prior to BzATP stimulation. Fluorescent emission at 30 minutes post-BzATP was calculated as an average of the entire imaging field as percent change from baseline, and responses at 30 minutes were averaged over multiple independent experiments. Individual traces of BV-2 YO-PRO-1 dye uptake were taken at 10 minute intervals and represent the average response of all BV-2 cells in the recorded view from a subset of experiments.
BV-2 microglia-like cells were maintained in DMEM (Gibco) containing 5% fetal bovine serum (Gibco) and 1% penicillin-streptomycin (Gibco) with 5% CO2.
The compounds tested were designed to more readily penetrate the blood brain barrier and were therefore predicted to require a lower dose to produce similar effects. Prior to testing the compounds in animals, the compounds were first tested in BV2 microglia-like cells using the YO-PRO-1 Dye Uptake Assay. By using this assay, Panx1 channel activity in response to BzATP stimulation of P2X7, an upstream receptor that causes Panx1 pore formation can be assessed. YO-PRO-1 is a large molecular weight dye that can only enter the cell through large pore ion channels such as Panx1, therefore its uptake correlates with Panx1 channel opening. BzATP stimulation causes a significant increase in YO-PRO-1 dye uptake in cells pre-treated with ECS and vehicle solution (0.1% DMSO) (FIG. 1, B).

Potency at inhibiting Panx1 channel opening relative to probenecid (Panx1 channel): more potent than probenecid | Concentration blocking Panx1 channel activity, fold lower than probenecid (Panx1 channel; Compound 1 10 nM vs probenecid 1 mM): 100,000 fold | Panx1 channel activity (BzATP-stimulated YO-PRO-1 dye uptake) (Panx1 channel; Compound 1 10 nM, 10 min pre-treatment, BzATP 150 μM, 30 min): significantly blocked
SMILES: CCCN(CCC)S(=O)(=O)c1ccc(C(O)(C(F)(F)F)C(F)(F)F)cc1 [Compound 1, 4-(1,1,1,3,3,3-hexafluoro-2-hydroxypropan-2-yl)-N,N-dipropylbenzenesulfonamide]
Withdrawal behaviors (C57BL/6J mice [1]): not effective | Withdrawal behaviors (C57BL/6J mice [2]; 0.1 mg/kg): significantly attenuated | Withdrawal behaviors (C57BL/6J mice [2]; 0.5 mg/kg): significantly attenuated | Withdrawal behaviors (C57BL/6J mice [2]; 1 mg/kg): significantly attenuated | Effective dose, fold lower than probenecid (C57BL/6J mice [2]; 0.1-1 mg/kg vs probenecid 50 mg/kg): 50-500 fold

From patent US20240166596A1, “SULFAMOYL BENZENE DERIVATIVES AND USES THEREOF” (AphioTx Inc., priority 2021, published 2024)
